In BindingDB's records for doi:10.1021/cc990074a (Ariad Pharmaceuticals, 2000):

Target: Proto-oncogene tyrosine-protein kinase Src (Homo sapiens)
Assay: Compounds were tested for binding to Src SH2 using a fluorescence polarization binding assay according to methods previously described. IC50 values were assigned to individual compounds according to their competitive binding affinity versus a high-affinity peptide probe, fluorescein-pTyr-pTyr-pTyr-Ile-Glu-NH2.

**Q.** How did the IC50 turn out when `COc1ccc(C(C)NC(=O)C(Cc2ccc(OP(=O)(O)O)cc2)NC(C)=O)cc1C(N)=O` (stereo not drawn) [Src SH2 inhibitor, 1b] was run?
**A.** The IC50 was 37 µM.

**Q.** With `NC(=O)c1cc(CNC(=O)c2ccc(OP(=O)(O)O)cc2)ccc1OCC1CCCCC1` [Src SH2 inhibitor, 3] as the compound, how does the IC50 read?
**A.** Its IC50 is 6.5 µM.

**Q.** For `O=C(NCc1ccc(OCC2CCCCC2)cc1)c1ccc(OP(=O)(O)O)cc1` [Src SH2 inhibitor, 4], which IC50 is on record?
**A.** Its IC50 is > 100 µM.
